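96-well plates; 48 h exposure; 5 concentrations. Endpoints by linear interpolation between flanking doses. Not reached: highest tested concentration assigned. At the TGI there is no net growth.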
How the values were obtained:
Assay in all cases: NCI tumour cell line growth inhibition, 48 h
SW-620 colon = test system: SW-620 colon
SNB-75 CNS = test system: SNB-75 CNS
U251 CNS = test system: U251 CNS
MALME-3M melanoma = test system: MALME-3M melanoma
HT29 colon = test system: HT29 colon
DMS 273 small cell lung = test system: DMS 273 small cell lung
SF-295 CNS = test system: SF-295 CNS
SNB-19 CNS = test system: SNB-19 CNS
OVCAR-8 ovarian = test system: OVCAR-8 ovarian
HCC-2998 colon = test system: HCC-2998 colon
A498 renal = test system: A498 renal
SK-MEL-2 melanoma = test system: SK-MEL-2 melanoma
SN12C renal = test system: SN12C renal
ACHN renal = test system: ACHN renal
EKVX NSCLC = test system: EKVX NSCLC
OVCAR-5 ovarian = test system: OVCAR-5 ovarian
KM20L2 colon = test system: KM20L2 colon
786-0 renal = test system: 786-0 renal
K-562 leukemia = test system: K-562 leukemia
A549 NSCLC = test system: A549 NSCLC
NCI-H23 lung = test system: NCI-H23 lung
UACC-62 melanoma = test system: UACC-62 melanoma
HCT-15 colon = test system: HCT-15 colon
LXFL 529 NSCLC = test system: LXFL 529 NSCLC
HCT-116 colon = test system: HCT-116 colon
UO-31 renal = test system: UO-31 renal
DLD-1 colon = test system: DLD-1 colon
SF-268 CNS = test system: SF-268 CNS
OVCAR-3 ovarian = test system: OVCAR-3 ovarian
HOP-62 NSCLC = test system: HOP-62 NSCLC
M14 melanoma = test system: M14 melanoma
M19-MEL melanoma = test system: M19-MEL melanoma
SK-MEL-5 melanoma = test system: SK-MEL-5 melanoma
LOX IMVI melanoma = test system: LOX IMVI melanoma
SK-MEL-28 melanoma = test system: SK-MEL-28 melanoma
MOLT-4 leukemia = test system: MOLT-4 leukemia
CAKI-1 renal = test system: CAKI-1 renal
TK-10 renal = test system: TK-10 renal
KM12 colon = test system: KM12 colon
UACC-257 melanoma = test system: UACC-257 melanoma
HL-60(TB) leukemia = test system: HL-60(TB) leukemia
DMS 114 small cell lung = test system: DMS 114 small cell lung
HOP-18 NSCLC = test system: HOP-18 NSCLC
RXF 393 renal = test system: RXF 393 renal
NCI-H522 lung = test system: NCI-H522 lung
SR leukemia = test system: SR leukemia
CCRF-CEM leukemia = test system: CCRF-CEM leukemia
RXF-631 renal = test system: RXF-631 renal
NCI-H226 lung = test system: NCI-H226 lung
COLO 205 colon = test system: COLO 205 colon
SK-OV-3 ovarian = test system: SK-OV-3 ovarian
OVCAR-4 ovarian = test system: OVCAR-4 ovarian
IGROV1 ovarian = test system: IGROV1 ovarian
HS 578T breast = test system: HS 578T breast
SN12K1 renal = test system: SN12K1 renal
MDA-MB-435 = test system: MDA-MB-435
DU-145 prostate = test system: DU-145 prostate
T-47D breast = test system: T-47D breast
SNB-78 CNS = test system: SNB-78 CNS
MCF7 breast = test system: MCF7 breast
P388 leukemia = test system: P388 leukemia
PC-3 prostate = test system: PC-3 prostate
P388/ADR leukemia = test system: P388/ADR leukemia
SF-539 CNS = test system: SF-539 CNS
RPMI-8226 leukemia = test system: RPMI-8226 leukemia
BT-549 breast = test system: BT-549 breast
NCI/ADR-RES ovarian = test system: NCI/ADR-RES ovarian
NCI-H460 lung = test system: NCI-H460 lung
HOP-92 NSCLC = test system: HOP-92 NSCLC
MDA-MB-231 breast = test system: MDA-MB-231 breast
XF 498 CNS = test system: XF 498 CNS

Cc1cc([N+](=O)[O-])ccc1Nc1cccc(Cl)c1C
TGI (SW-620 colon): 62.7 µM | TGI (SNB-75 CNS): 52.7 µM | TGI (U251 CNS): 29.8 µM | TGI (MALME-3M melanoma): 29.2 µM | TGI (HT29 colon): 32 µM | TGI (DMS 273 small cell lung): 28.5 µM | TGI (SF-295 CNS): 34.6 µM | TGI (SNB-19 CNS): 42.9 µM | TGI (OVCAR-8 ovarian): 30.3 µM | TGI (HCC-2998 colon): 32.6 µM | TGI (A498 renal): 29 µM | TGI (SK-MEL-2 melanoma): 29 µM | TGI (SN12C renal): 32.1 µM | TGI (ACHN renal): 41.4 µM | TGI (EKVX NSCLC): 49.8 µM | TGI (OVCAR-5 ovarian): 28.8 µM | TGI (KM20L2 colon): 29.8 µM | TGI (786-0 renal): 31.9 µM | TGI (K-562 leukemia): 33.8 µM | TGI (A549 NSCLC): 40.2 µM | TGI (NCI-H23 lung): 33.3 µM | TGI (UACC-62 melanoma): 27.2 µM | TGI (HCT-15 colon): 35 µM | TGI (LXFL 529 NSCLC): 28.3 µM | TGI (HCT-116 colon): 29.6 µM | TGI (UO-31 renal): 24.4 µM | TGI (DLD-1 colon): 33.5 µM | TGI (SF-268 CNS): 35.8 µM | TGI (OVCAR-3 ovarian): 27.8 µM | TGI (HOP-62 NSCLC): 28 µM | TGI (M14 melanoma): 29.1 µM | TGI (M19-MEL melanoma): 30.6 µM | TGI (SK-MEL-5 melanoma): 29.1 µM | TGI (LOX IMVI melanoma): 33.9 µM | TGI (SK-MEL-28 melanoma): 32.1 µM | TGI (MOLT-4 leukemia): 33 µM | TGI (CAKI-1 renal): 30.5 µM | TGI (TK-10 renal): 30 µM | TGI (KM12 colon): 31 µM | TGI (UACC-257 melanoma): 40.4 µM | TGI (HL-60(TB) leukemia): 41.6 µM | TGI (DMS 114 small cell lung): 28.9 µM | TGI (HOP-18 NSCLC): 29.6 µM | TGI (RXF 393 renal): 34.5 µM | TGI (NCI-H522 lung): 31 µM | TGI (SR leukemia): 40.4 µM | TGI (CCRF-CEM leukemia): 47.2 µM | TGI (RXF-631 renal): 31.3 µM | TGI (NCI-H226 lung): 34.9 µM | TGI (COLO 205 colon): 31.3 µM | TGI (SK-OV-3 ovarian): 47.7 µM | TGI (OVCAR-4 ovarian): 31.4 µM | TGI (IGROV1 ovarian): 27.6 µM

CC(O)CCC(=O)c1ccoc1 (centres undefined)
TGI (HS 578T breast): > 10000 µM | TGI (SW-620 colon): > 10000 µM | TGI (SNB-75 CNS): 9650 µM | TGI (U251 CNS): > 10000 µM | TGI (MALME-3M melanoma): > 8380 µM | TGI (HT29 colon): > 10000 µM | TGI (DMS 273 small cell lung): > 9140 µM | TGI (SF-295 CNS): > 10000 µM | TGI (SNB-19 CNS): > 10000 µM | TGI (OVCAR-8 ovarian): > 10000 µM | TGI (SN12K1 renal): > 10000 µM | TGI (MDA-MB-435): > 10000 µM | TGI (HCC-2998 colon): > 10000 µM | TGI (A498 renal): 9940 µM | TGI (SK-MEL-2 melanoma): > 8110 µM | TGI (SN12C renal): 9930 µM | TGI (ACHN renal): > 10000 µM | TGI (EKVX NSCLC): > 9740 µM | TGI (OVCAR-5 ovarian): > 10000 µM | TGI (KM20L2 colon): > 10000 µM | TGI (786-0 renal): > 10000 µM | TGI (DU-145 prostate): > 10000 µM | TGI (T-47D breast): > 10000 µM | TGI (K-562 leukemia): > 10000 µM | TGI (A549 NSCLC): > 7450 µM | TGI (SNB-78 CNS): 9990 µM | TGI (NCI-H23 lung): > 10000 µM | TGI (UACC-62 melanoma): > 10000 µM | TGI (HCT-15 colon): > 10000 µM | TGI (HCT-116 colon): > 8750 µM | TGI (UO-31 renal): 9120 µM | TGI (MCF7 breast): > 10000 µM | TGI (DLD-1 colon): > 10000 µM | TGI (SF-268 CNS): > 10000 µM | TGI (OVCAR-3 ovarian): 9960 µM | TGI (HOP-62 NSCLC): > 10000 µM | TGI (M14 melanoma): > 10000 µM | TGI (M19-MEL melanoma): > 10000 µM | TGI (SK-MEL-5 melanoma): 8030 µM | TGI (P388 leukemia): > 10000 µM | TGI (LOX IMVI melanoma): > 10000 µM | TGI (SK-MEL-28 melanoma): > 8380 µM | TGI (MOLT-4 leukemia): > 9430 µM | TGI (CAKI-1 renal): 3930 µM | TGI (TK-10 renal): > 10000 µM | TGI (KM12 colon): > 8110 µM | TGI (UACC-257 melanoma): > 10000 µM | TGI (HL-60(TB) leukemia): 7890 µM | TGI (DMS 114 small cell lung): > 9670 µM | TGI (HOP-18 NSCLC): > 10000 µM | TGI (PC-3 prostate): > 10000 µM | TGI (P388/ADR leukemia): > 10000 µM | TGI (RXF 393 renal): > 8310 µM | TGI (SF-539 CNS): > 10000 µM | TGI (NCI-H522 lung): 8270 µM | TGI (SR leukemia): > 10000 µM | TGI (CCRF-CEM leukemia): > 9360 µM | TGI (RPMI-8226 leukemia): 7900 µM | TGI (NCI-H226 lung): > 10000 µM | TGI (BT-549 breast): > 10000 µM | TGI (COLO 205 colon): > 8250 µM | TGI (NCI/ADR-RES ovarian): > 9750 µM | TGI (SK-OV-3 ovarian): > 7940 µM | TGI (OVCAR-4 ovarian): > 7940 µM | TGI (IGROV1 ovarian): > 10000 µM | TGI (NCI-H460 lung): > 10000 µM | TGI (HOP-92 NSCLC): 8000 µM | TGI (MDA-MB-231 breast): > 10000 µM

Cc1ccc(Cc2c(=O)[nH]nc3ccccc23)cc1
TGI (SW-620 colon): > 100 µM | TGI (SNB-75 CNS): > 100 µM | TGI (MALME-3M melanoma): > 100 µM | TGI (HT29 colon): > 100 µM | TGI (XF 498 CNS): > 100 µM | TGI (DMS 273 small cell lung): > 100 µM | TGI (SF-295 CNS): > 100 µM | TGI (SNB-19 CNS): > 100 µM | TGI (OVCAR-8 ovarian): > 100 µM | TGI (HCC-2998 colon): > 100 µM | TGI (A498 renal): > 100 µM | TGI (SK-MEL-2 melanoma): > 100 µM | TGI (SN12C renal): > 100 µM | TGI (ACHN renal): > 100 µM | TGI (EKVX NSCLC): > 100 µM | TGI (OVCAR-5 ovarian): > 100 µM | TGI (KM20L2 colon): > 100 µM | TGI (786-0 renal): > 100 µM | TGI (K-562 leukemia): > 100 µM | TGI (A549 NSCLC): > 100 µM | TGI (SNB-78 CNS): > 100 µM | TGI (NCI-H23 lung): > 100 µM | TGI (UACC-62 melanoma): > 100 µM | TGI (HCT-15 colon): > 100 µM | TGI (HCT-116 colon): > 100 µM | TGI (UO-31 renal): > 100 µM | TGI (DLD-1 colon): > 100 µM | TGI (SF-268 CNS): > 100 µM | TGI (OVCAR-3 ovarian): > 100 µM | TGI (HOP-62 NSCLC): > 100 µM | TGI (M14 melanoma): > 100 µM | TGI (M19-MEL melanoma): > 100 µM | TGI (SK-MEL-5 melanoma): > 100 µM | TGI (LOX IMVI melanoma): > 100 µM | TGI (SK-MEL-28 melanoma): > 100 µM | TGI (MOLT-4 leukemia): > 100 µM | TGI (CAKI-1 renal): > 100 µM | TGI (TK-10 renal): > 100 µM | TGI (KM12 colon): > 100 µM | TGI (UACC-257 melanoma): > 100 µM | TGI (DMS 114 small cell lung): > 100 µM | TGI (HOP-18 NSCLC): > 100 µM | TGI (SF-539 CNS): > 100 µM | TGI (CCRF-CEM leukemia): > 100 µM | TGI (RXF-631 renal): > 100 µM | TGI (RPMI-8226 leukemia): > 100 µM | TGI (NCI-H226 lung): > 100 µM | TGI (COLO 205 colon): > 100 µM | TGI (SK-OV-3 ovarian): > 100 µM | TGI (OVCAR-4 ovarian): > 100 µM | TGI (IGROV1 ovarian): > 100 µM | TGI (NCI-H460 lung): > 100 µM | TGI (HOP-92 NSCLC): > 100 µM
